Values quoted from earlier work, collected in patent publication US4966770A (priority 1989, dated 1990).

solubility in alcohol: slightly soluble in alcohol
solubility in water: very slightly soluble in water
SMILES: C[C@]12C=CC(=O)C=C1CC[C@@H]1[C@@H]2C(=O)C[C@@]2(C)[C@H]1CC[C@]2(O)C(=O)CO [prednisone]
